Where “and” joins values, the source holds several entries; their conditions need not be identical. Identical values can stand only once.
Legend:
[1] = test system: anti-carbohydrate antibodies of baboon serums; assay: Glycan array screening of baboon serums (406 glycans); format: binding, baboons (Papio anubis); settings: for change of anti-carbohydrate antibodies after PRBC exposure: animal E19; for average±S.D. level of antibodies: before transplant/PRBC, animals without anti-Gal removal (A15, A14) or sampled before GAS914 (C63)
Description: Heterotopic pig heart and kidney were placed in the abdominal cavity of baboons as previously described (Schmoeckel M et al. 1998 Transplantation 65:1570-1577; Cozzi E et al. 1997 Transplantation. 64:1383-1392). Blood samples for anti-carbohydrate antibody analysis were obtained from each animal before transplantation and at acute humoral xenotransplant rejection (AHXR).
Three animals (D29, E19 and E7) were exposed to weekly injections of 5 cubic centimeters (cc) of PRBC three times and blood samples for anti-carbohydrate antibodies were analysed one week after last injection. Another animal received 7 daily injections of 5 cc of PRBC (C63), until an augment of the level of anti-pig hemolytic antibodies (APHA) was observed, and blood samples were analysed at days 2, 20 and 30 relative to the first PRBC injection.
The carbohydrate-binding specificity of baboon serums obtained before and after pig organ xenotransplantation or PRBC exposure was investigated on glycan array v4.1 comprised of 406 glycans (Consortium for Functional Glycomics, Protein-Glycan Interaction Core-H) (http://www.functionalglycomics.org). Two different studies were performed: Consortium for Functional Glycomics projects #1313 and #1577. Pre and post-immunization samples from each animal were analysed in the same glycoarray study with exception of C63 day 20, which was performed in study #1577 whilst the other samples from this animal were analysed in study #1313. In order to assess the potential effect of a different glycoarray study, a linear mixed model with repeated measures was fitted for each carbohydrate, with its log expression as dependent variable and type of sample (pre or post-immunization) and the study (#1313 or #1577) as independent variables.

[2] = test system: anti-HA antibodies in human serum; assay: Specific ELISA for HA oligosaccharides, human serum; format: binding
Description: (§1) The enzyme-linked immunosorbent assay (ELISA) plates were coated with HA oligosaccharides (disaccharide, tetrasaccharide and decasaccharide) conjugated with polyacrylamide, obtained from Shemyakin-Ovchinnikov Institute of Biorganic Chemistry, Russian Academy of Science (Moscow, Russia). The disaccharide form was synthesized in this institution, whilst the tetrasaccharide and decasaccharide molecules were obtained from Sigma, Spain, and bound to polyacrylamide in this center. The protocol for determination of anti-HA antibodies was based in previously described ELISAs to determine other anti-carbohydrate antibodies with minimal modifications (Mañez R et al. 2001 Xenotransplantation 8: 15-23; Obukhova P et al. 2007 Xenotransplantation 14: 627-635).
Humans also have preformed antibodies against HA disaccharide (von Gunten S et al. 2009 J Allergy Clin Immunol 123: 1268-1276; Huflejt M E et al. 2009 Mol Immunol 46: 3037-3049). Thus, we used human serums randomly selected to investigate by specific ELISAS, the presence of preformed antibodies against HA disaccharide, tetrasaccharide and decasacchride. Also, antibodies against HA oligosaccharides were investigated in rats immunized either with PRBC and hamster blood following two protocols to generate mainly IgM or IgG antibodies.
The inventors analyzed the level of anti-HA disaccharide antibodies by specific ELISA in patients with SLE and anti-DNA antibodies (Group A; n=17), SLE without anti-DNA antibodies (Group B; n=10) and controls from blood bank (Group C; n=13). The values for IgM anti-HA disaccharide antibodies were (mean±S.E.) 0.58±0.07 in Group A, 0.71±0.13 in Group B, and 0.74±0.11 in Group C, with p=0.1 in ANOVA comparing Group A with Groups B or C. For IgG, the values were 0.37±0.08 in Group A, 0.27±0.05 in Group B, 0.27±0.03 in Group C, with a p=0.3 in ANOVA comparing Group A with Groups B or C.

[3] = test system: anti-HA antibodies in rat serum; assay: Specific ELISA for HA oligosaccharides, rats immunized with PRBC or hamster blood; format: binding; settings: for level of preformed antibodies in rats compared to humans: rats before exposure; for level of preformed antibodies in rats compared to humans / production of IgM antibodies: FIG. 6; for production of IgM antibodies / production of IgG antibodies: rats; for production of IgM antibodies: three injections of PRBC or hamster blood every other day; for production of IgG antibodies: three injections of PRBC or hamster blood every other week, FIGS. 7 and 8
Description: Rats were immunized either with PRBC and hamster blood following two protocols to produce mainly IgM or IgG anti-carbohydrate antibodies. Three injections of 1 ml every other day (days 0, 2 and 4) and drawn of blood sample on day 5 was used to investigate IgM antibodies, and three injections every two weeks times 3, with blood obtained 12 days after last injection was used to investigate IgG antibodies.
as §1

[4] = baboon C63, 200 mg/kg CyP over 4 days from day 20, day relative to first PRBC injection
Description: The dose of CyP was chosen because it largely eliminates the mature immune system, leading to a major reduction in antibody and autoantibody levels, while leaving hematopoietic precursors intact.

[5] = test system: hyaluronan (HA antigens) in pig xenograft tissue; assay: Immunohistochemistry of IgM and IgG deposits in xenografts at AHXR with hyaluronidase pre-treatment; parameters: species or system pig xenograft in baboon
Description: In all the transplants an open xenograft biopsy was obtained 30 minutes after reperfusion, as well as at autopsy after AHXR. Tissue samples were fixed in 10% buffered formalin for at least 24 hours, dehydrated, and embedded in paraffin. Sections of 4 μm thickness were stained with hematoxylin and eosin Immunohistochemical examinations for IgG and IgM were performed in paraffin-embedded material. After inhibition of endogenous alkaline phosphatase with levamisol for 10 minutes, samples were incubated with goat anti-human IgG and IgM alkaline phosphatase conjugated (Sigma-Aldrich) for 30 minutes at 1:50 dilution. Tissue samples where then incubated with the EnVision™ G|2, Rabbit/Mouse (LINK) (Dako) following product recommendations. This reagent is a dextran polymer, which also carries antibodies to rabbit and mouse immunoglobulins. Finally, an alkaline phosphatase-labelled amplification polymer is added. The reaction is visualized by Permanent Red Chromogen also included in the kit. To investigate the potential role of hyaluronan as antigen some tissue sections were pre-treated with 50 u/mL of Streptomyces hyaluronidase (Sigma-Aldrich) for two hours at 37° C., which unlike other hyaluronidases is specific for hyaluronan.
To investigate the potential impact of HA antigens in AHXR, the presence of IgM and IgG deposits in tissue samples was investigated with and without previous incubation with Streptomyces hyaluronidase, which is specific for HA.

[6] = test system: human endothelial cells (HMEC); assay: Flow cytometry of non-human primate antibody binding to HMEC pre-treated with hyaluronidase; format: cell-based
Description: The authors have previously shown that immunization of non-human primates with pig blood is associated with the generation of xenoantibodies cross-reactive to human endothelial cells. To investigate whether HA antigens were involved in this reactivity, human endothelial cells (HMEC) were pre-treated with 20 Um′ of hyaluronidase from Streptomyces, which is specific for HA, for one hour. This hyaluronidase cleaves HA in fragments of 4 and 6 saccharides (tetra- and hexasaccharides). […] To show the effect of hyaluronidase pre-treatment in HA on HMEC cells, a hyaluronan-binding-protein (HABP), which binds to large molecular weight HA, was used as control (FIG. 9C).

[7] = animal D17, kidney xenotransplantation
[8] = Group A: SLE and anti-DNA antibodies, n=17
[9] = Group B: SLE without anti-DNA antibodies, n=10
[10] = Group C: controls from blood bank, n=13
[11] = randomly selected human serums, FIG. 5
[12] = hyaluronidase pre-treatment 20 Um′, one hour, serum of primates immunized with pig blood

GlcAβ1-3GlcNAcβ-Sp8 [Glycan 300]
cases with antibodies within the top 20 increases after PRBC exposure ([1]; PRBC exposure, 4 baboons): all the cases
change of anti-carbohydrate antibody reactivity at AHXR vs before transplantation ([1]; animal A14, severe rejection): More significant raises
change of anti-carbohydrate antibody reactivity at AHXR vs before transplantation ([1]; animal A15, no treatment, survival 4 days): decreased reactivity
augment of antibodies after PRBC exposure ([1]; animal C63, day 20, two weeks after end of PRBC injections): evidenced
level of antibodies after PRBC exposure ([1]; animal C63, day 30 after CyP treatment): higher level of anti-carbohydrate antibodies
augment of antibodies after PRBC exposure ([1]; animal C63, day two, during PRBC exposure): not present
change of anti-carbohydrate antibody reactivity at AHXR vs before transplantation ([1]; animal D10, mild rejection): moderated augment
change of anti-carbohydrate antibody reactivity at AHXR vs before transplantation ([1]; animal D12, severe rejection): More significant raises
change of anti-carbohydrate antibody reactivity at AHXR vs before transplantation [1, 7]: moderated augment
change of anti-carbohydrate antibodies after PRBC exposure [1]: higher level and increase
rank of average level of antibodies ([1]; baboons before exposure to PRBC): highest reactivity
rank of average level of antibodies ([1]; baboons before pig organ xenotransplantation): second highest reactivity
average±S.D. level of antibodies [1]: 18332±14201 net fluorescence units (NFU)
IgG anti-HA disaccharide antibodies (mean±S.E.) [2, 8]: 0.37±0.08
IgM anti-HA disaccharide antibodies (mean±S.E.) [2, 8]: 0.58±0.07
IgG anti-HA disaccharide antibodies (mean±S.E.) [2, 9]: 0.27±0.05
IgM anti-HA disaccharide antibodies (mean±S.E.) [2, 9]: 0.71±0.13
IgG anti-HA disaccharide antibodies (mean±S.E.) [2, 10]: 0.27±0.03
IgM anti-HA disaccharide antibodies (mean±S.E.) [2, 10]: 0.74±0.11
preformed IgG antibodies in human serum [2, 11]: preformed IgG antibodies are only against HA disaccharide
preformed IgM antibodies in human serum [2, 11]: preformed IgM antibodies
level of preformed antibodies in rats compared to humans [3]: lower level
production of IgM antibodies [3]: significant production of IgM antibodies
production of IgG antibodies [3]: significant production

O=P1(N(CCCl)CCCl)NCCCO1 (stereo not drawn) [CyP, cyclophosphamide]
day of death because of side effects from CyP treatment [4]: 31 days and 30 days

Hyaluronidase
IgG antibody deposits in xenograft at AHXR, semiquantitative score ([5]; animal A14, AHXR III): complete disappearance
IgM antibody deposits in xenograft at AHXR, semiquantitative score ([5]; animal A14, AHXR III): notably reduced
IgG antibody deposits in xenograft at AHXR, semiquantitative score ([5]; animal A15, AHXR III): complete disappearance
IgM antibody deposits in xenograft at AHXR, semiquantitative score ([5]; animal A15, AHXR III): did not show any change
IgG antibody deposits in xenograft at AHXR, semiquantitative score ([5]; animal D10, AHXR I): complete disappearance
IgM antibody deposits in xenograft at AHXR, semiquantitative score ([5]; animal D10, AHXR I): disappeared
IgG antibody deposits in xenograft at AHXR, semiquantitative score ([5]; animal D12, AHXR III): remarkable reduction
IgM antibody deposits in xenograft at AHXR, semiquantitative score ([5]; animal D12, AHXR III): notably reduced
IgG antibody deposits in xenograft at AHXR, semiquantitative score ([5]; animal D17, AHXR III): remarkable reduction
IgM antibody deposits in xenograft at AHXR, semiquantitative score ([5]; animal D17, AHXR III): did not show any change
non-human primate IgG antibody binding to HMEC [6, 12]: augment
non-human primate IgM antibody binding to HMEC [6, 12]: not observed
HA expression on HMEC detected with hyaluronan-binding-protein (HABP) ([6]; hyaluronidase pre-treatment, compared to the baseline): reduction of HA expression

CC(=O)N[C@H]1C(O)O[C@H](CO)[C@@H](O[C@@H]2O[C@H](CO)[C@H](O)[C@H](O[C@H]3O[C@H](CO)[C@H](O)[C@H](O)[C@H]3O)[C@H]2O)[C@@H]1O (stereo partly drawn) [Gal, Galα1-3Galβ1-4GlcNAc, reference compound]
average±S.D. level of antibodies [1]: 3865±2892 net fluorescence units (NFU)

CC(=O)N[C@H]1[C@H](O[C@H]2[C@H](O)[C@@H](O)[C@H](O[C@H]3[C@H](O)[C@@H](CO)OC(O)[C@@H]3NC(C)=O)O[C@@H]2C(=O)O)O[C@H](CO)[C@@H](O)[C@@H]1O[C@@H]1O[C@H](C(=O)O)[C@@H](O)[C@H](O)[C@H]1O (stereo partly drawn) [HA tetrasaccharide]
preformed IgM antibodies in human serum [2, 11]: preformed IgM antibodies
level of preformed antibodies in rats compared to humans [3]: lower level
production of IgM antibodies [3]: significant production of IgM antibodies
production of IgG antibodies [3]: significant production

C[C@@H]1O[C@@H](OCCCN)[C@H](O)[C@H](O)[C@H]1O [Glycan 11, Rha-Sp8, reference compound]
change of anti-carbohydrate antibody reactivity at AHXR vs before transplantation [1, 7]: augmented

CC(=O)N[C@H]1[C@H]([C@H](O)[C@H](O)CO)O[C@](OCCCN)(C(=O)O)C[C@@H]1O [Glycan 14, Neu5Acβ-Sp8, reference compound]
change of anti-carbohydrate antibodies after PRBC exposure [1]: barely changed

— patent US9719987B2, “Immunoadsorbent compositions comprising hyaluronic acid oligosaccharides” (FUNDACIO INSTITUT D'INVESTIGACIO BIOMEDICA DE BELLVITGE …, priority 2012, dated 2017)
